# From ChEMBL document CHEMBL4819020, “Discovery of [1,2,4]triazolo[1,5-a]pyrimidines derivatives as potential anticancer agents” (Eur J Med Chem, 2021)
# The source made the active and inactive calls. The calls are words filed in the database; no cut-off is given here.
# Experiments:
# [1] = system: MGC-803; test: Induction of apoptosis in human MGC-803 cells assessed as upregulation of Bax at 0.75 to 3 uM measured after 48 hrs by western blot assay; format: functional, cell-based; conditions: dose 0.75-3 µM
# [2] = system: MGC-803; test: Induction of apoptosis in human MGC-803 cells assessed as increase in cleaved caspase expression at 0.75 to 3 uM measured after 48 hrs by western blot assay; format: functional, cell-based; conditions: dose 0.75-3 µM
# [3] = system: MGC-803; test: Antiproliferative activity against human MGC-803 cells assessed as cell viability measured at 0.75 to 3 uM by MTT assay; format: functional, cell-based; conditions: dose 0.75-3 µM, time 24-72 hrs, TDE = time-dependent effect
# [4] = system: PC-9; test: Antiproliferative activity against human PC-9 cells assessed as inhibition of cell proliferation measured after 72 hrs by MTT assay; format: functional, cell-based; conditions: PC-9, 72 h
# [5] = system: MGC-803; test: Antiproliferative activity against human MGC-803 cells assessed as inhibition of cell proliferation measured after 72 hrs by MTT assay; format: functional, cell-based; conditions: MGC-803, 72 h
# [6] = system: MGC-803; test: Cell cycle arrest in human MGC-803 cells assessed as accumulation of cells in S phase at 1.5 uM measured after 24 hrs by PI staining based flow cytometry assay (reference value: 18.03%); format: functional
# [7] = Toxicity in mouse assessed as effect on kidney at 2 mg/kg, ig measured after 2 weeks by H and E staining based microscopic method; format: organism-based; conditions: in vivo, po, 336 h
# [8] = Toxicity in mouse assessed as effect on liver at 2 mg/kg, ig measured after 2 weeks by H and E staining based microscopic method; format: organism-based; conditions: in vivo, po, 336 h
# [9] = Toxicity in mouse assessed as mouse survival at 2 mg/kg, ig measured after 2 weeks; format: organism-based; conditions: in vivo, po, 336 h
# [10] = Toxicity in mouse assessed by effect on changes in body weight at 2 mg/kg, ig measured after 2 weeks; format: organism-based; conditions: in vivo, po, 336 h
# [11] = system: MGC-803; test: Induction of apoptosis in human MGC-803 cells assessed as viable cells at 1.5 uM measured after 48 hrs by Annexin V-FITC/PI staining based flow cytometry method (reference value: 92.3 %); format: functional; conditions: read-out: Activity
# [12] = system: GES1; test: Antiproliferative activity against human GES1 cells assessed as inhibition of cell proliferation measured after 72 hrs by MTT assay; format: cell-based; conditions: GES1, 72 h
# [13] = system: MGC-803; test: Induction of apoptosis in human MGC-803 cells assessed as late apoptotic cells at 3 uM measured after 48 hrs by Annexin V-FITC/PI staining based flow cytometry method (reference value: 3.10 %); format: functional
# [14] = system: MGC-803; test: Cell cycle arrest in human MGC-803 cells assessed as accumulation of cells in G2/M phase at 0.75 uM measured after 24 hrs by PI staining based flow cytometry assay (reference value: 33.35%); format: functional
# [15] = Selectivity index, ratio of EC50 for human MGC-803 cells to EC50 for human GES1 cells
# [16] = system: MGC-803; test: Induction of apoptosis in human MGC-803 cells assessed as increase in cleaved caspase 3/9 expression at 0.75 to 3 uM measured after 48 hrs by western blot assay; format: functional, cell-based; conditions: dose 0.75-3 µM
# [17] = system: MGC-803; test: Cell cycle arrest in human MGC-803 cells assessed as accumulation of cells in G2/M phase at 3 uM measured after 24 hrs by PI staining based flow cytometry assay (reference value: 33.35%); format: functional
# [18] = system: MGC-803; test: Induction of apoptosis in human MGC-803 cells assessed by formation of apoptotic bodies at 0.75 to 3 uM measured after 48 hrs by Hoechst 33342 staining based microscopic method; format: functional, cell-based; conditions: dose 0.75-3 µM
# [19] = system: MGC-803; test: Induction of apoptosis in human MGC-803 cells assessed as necrotic cells at 1.5 uM measured after 48 hrs by Annexin V-FITC/PI staining based flow cytometry method (reference value: 3.60 %); format: functional
# [20] = system: MGC-803; test: Induction of apoptosis in human MGC-803 cells assessed as late apoptotic cells at 1.5 uM measured after 48 hrs by Annexin V-FITC/PI staining based flow cytometry method (reference value: 3.10 %); format: functional
# [21] = Toxicity in mouse assessed as effect on lung at 2 mg/kg, ig measured after 2 weeks by H and E staining based microscopic method; format: organism-based; conditions: in vivo, po, 336 h
# [22] = system: MGC-803; test: Antiproliferative activity against human MGC-803 cells assessed as inhibition of colony formation at 0.125 to 0.5 uM measured after 7 days by crystal violet dye based colony formation assay; format: functional, cell-based; conditions: dose 0.125-0.5 µM, time 7.0 day
# [23] = system: MGC-803; test: Induction of apoptosis in human MGC-803 cells assessed by nuclear fragmentation at 0.75 to 3 uM measured after 48 hrs by Hoechst 33342 staining based microscopic method; format: functional, cell-based; conditions: dose 0.75-3 µM
# [24] = system: MGC-803; test: Cell cycle arrest in human MGC-803 cells assessed as accumulation of cells in G0/G1 phase at 3 uM measured after 24 hrs by PI staining based flow cytometry assay (reference value: 49.39%); format: functional
# [25] = system: MGC-803; test: Cell cycle arrest in human MGC-803 cells assessed as accumulation of cells in G0/G1 phase at 1.5 uM measured after 24 hrs by PI staining based flow cytometry assay (reference value: 49.39%); format: functional
# [26] = Toxicity in mouse assessed as effect on spleen at 2 mg/kg, ig measured after 2 weeks by H and E staining based microscopic method; format: organism-based; conditions: in vivo, po, 336 h
# [27] = system: MGC-803; test: Cell cycle arrest in human MGC-803 cells assessed as accumulation of cells in S phase at 3 uM measured after 24 hrs by PI staining based flow cytometry assay (reference value: 18.03%); format: functional
# [28] = system: MGC-803; test: Induction of apoptosis in human MGC-803 cells assessed as early apoptotic cells at 0.75 uM measured after 48 hrs by Annexin V-FITC/PI staining based flow cytometry method (reference value: 0.992 %); format: functional
# [29] = system: MGC-803; test: Cell cycle arrest in human MGC-803 cells assessed as accumulation of cells in G2/M phase at 1.5 uM measured after 24 hrs by PI staining based flow cytometry assay (reference value: 33.35%); format: functional
# [30] = system: MGC-803; test: Induction of apoptosis in human MGC-803 cells assessed as viable cells at 3 uM measured after 48 hrs by Annexin V-FITC/PI staining based flow cytometry method (reference value: 92.3 %); format: functional; conditions: read-out: Activity
# [31] = system: MGC-803; test: Inhibition of cell migration in human MGC-803 cells measured after 48 hrs by transwell assay; format: functional, cell-based; conditions: dose 0.25-1 µM
# [32] = system: MGC-803; test: Induction of apoptosis in human MGC-803 cells assessed as necrotic cells at 3 uM measured after 48 hrs by Annexin V-FITC/PI staining based flow cytometry method (reference value: 3.60 %); format: functional
# [33] = system: MCF7; test: Antiproliferative activity against human MCF7 cells assessed as inhibition of cell proliferation measured after 72 hrs by MTT assay; format: functional, cell-based; conditions: MCF7, 72 h
# [34] = system: MGC-803; test: Induction of apoptosis in human MGC-803 cells assessed as increase in p53 expression at 0.75 to 3 uM measured after 48 hrs by western blot assay; format: functional, cell-based; conditions: dose 0.75-3 µM
# [35] = system: MGC-803; test: Induction of apoptosis in human MGC-803 cells assessed by increase in ROS production at 3 uM measured after 24 hrs by DCFH-DA staining based flow cytometry; format: functional, cell-based
# [36] = system: MGC-803; test: Inhibition of cell migration in human MGC-803 cells measured after 48 hrs by wound healing assay; format: functional, cell-based; conditions: dose 0.25-1 µM
# [37] = system: MGC-803; test: Induction of apoptosis in human MGC-803 cells assessed by cell rounding at 0.75 to 3 uM measured after 48 hrs by Hoechst 33342 staining based microscopic method; format: functional; conditions: dose 0.75-3 µM
structure (smiles),measurement,setting,value
Cc1cc(Nc2ccn(Cc3nc(C)c4ccccc4n3)n2)n2nc(SCc3ccc(Br)cc3)nc2n1,Activity,[1],Dose-Dependent Effect
same,Activity,[2],Dose-Dependent Effect
same,Activity,[3],Tde
same,IC50,[4],5.45 µM
same,IC50,[5],0.96 µM
same,Activity,[6],20.75%
same,Activity,[7],Non-Toxic
same,Activity,[8],Non-Toxic
same,Activity,[9],Non-Toxic
same,Activity,[10],Non-Toxic
same,viability at 1.5 µM,[11],80.3%
same,IC50,[12],36.8 µM
same,Activity,[13],27.7%
same,Activity,[14],19.3%
same,Ratio EC50,[15],38
same,Activity,[16],Dose-Dependent Effect
same,Activity,[17],4.64%
same,Activity,[18],Dose-Dependent Effect
same,Activity,[19],2.47%
same,Activity,[20],10.4%
same,Activity,[21],Non-Toxic
same,Activity,[22],Active
same,Activity,[23],Dose-Dependent Effect
same,Activity,[24],69.99%
same,Activity,[25],57.78%
same,Activity,[26],Non-Toxic
same,Activity,[27],18.5%
same,Activity,[28],2.17%
same,Activity,[29],14.61%
same,viability at 3 µM,[30],28%
same,Activity,[31],Dose-Dependent Effect
same,Activity,[32],24.9%
same,IC50,[33],1.43 µM
same,Activity,[34],Dose-Dependent Effect
same,Activity,[35],Active
same,Activity,[36],Dose-Dependent Effect
same,Activity,[37],Dose-Dependent Effect
